Experiment: Human HepG2 cell viability assay in 384 well format
Type: toxicity, cell-based
Design: dose 125 nL, time 70.5 hour; cytotoxicity at 70.5 h: concentration not given beside the values
Settings: HepG2 cells, read-out: Inhibition

| Structure (SMILES) | cytotoxicity at 70.5 h [%] |
| --- | --- |
| COc1ccc(CC(=O)N2CCCC2Cn2cc(C)cn2)c(OC)c1 (stereo not drawn) | -0.475 |
| Cc1cnn(CC2CCCN2C(=O)CCc2ccc3c(c2)OCO3)c1 (stereo not drawn) | 20.8 |
| CCc1ncncc1C(=O)NC1CCc2nc(C)cn2C1 (stereo not drawn) | -1.22 |
| Cc1cn2c(n1)CCC(NC(=O)c1csc(C(C)C)n1)C2 (stereo not drawn) | -0.273 |
| CCc1nc(C2CCCN(C(=O)C(C)(C)NS(C)(=O)=O)C2)no1 (stereo not drawn) | 0.741 |
| Cc1nccc(C(=O)N2CCOC(c3nc(C(C)C)n[nH]3)C2)n1 (stereo not drawn) | -5.71 |
| COc1c(C2CCCN2C(=O)c2ccc3[nH]cnc3c2)c(C)nn1C (stereo not drawn) | -0.572 |
| Cc1noc(C)c1C(=O)N1CCCN(Cc2cscn2)CC1 | -2.11 |
| COc1c(C2CCCN2C(=O)c2ccnc(C)n2)c(C)nn1C (stereo not drawn) | -12.9 |
| C1CC(NCc2nnc(C3CC3)o2)CN(Cc2noc(C3CC3)n2)C1 (stereo not drawn) | -7.51 |
| COCc1cccc(CNCc2c(C)nn(C)c2N2CCOCC2)c1 | -12.5 |
| CCOC(C)C(=O)NCc1ccc(N(C)C)cc1 (stereo not drawn) | -10.8 |
| Cc1oc(C)c(C(=O)N2CCN(Cc3cscn3)CC2)c1C | -7.99 |
| O=C(CCc1ccccn1)N1CCCC1 | -3.29 |
| Cc1cnc(C(=O)NCc2ccnc(N(C)C)c2)cn1 | -2.67 |
| O=C(NCCC(=O)N1CCCc2ccccc21)c1cc(F)cc(F)c1 | -7.42 |
| Cc1occc1C(=O)N1CCCC(c2nncn2C)C1 (stereo not drawn) | -6.07 |
| Cn1cnnc1C1CCCN(C(=O)c2cc(Cl)c(Cl)n2C)C1 (stereo not drawn) | -8.15 |
| Cc1nn(C)c(N2CCOCC2)c1CNCc1ccc(CO)c(F)c1 | -0.89 |
| O=C(Cc1ccccn1)N1CCN(C(=O)CC2CCCC2)CC1 | -1.56 |
| Cc1ccc(N2CCCN(C(=O)CCc3nccs3)CC2)nn1 | -8.06 |
| CCCc1noc(CNC2CCCN(Cc3noc(C4CC4)n3)C2)n1 (stereo not drawn) | -3.33 |
| CCNc1cc2c(nn1)CCN(C(=O)c1ccoc1)C2 | -11.9 |
| O=C(CCc1nccs1)N1CCN(c2ccccn2)CC1 | 8.13 |

| Structure (SMILES) | cytotoxicity at 70.5 h [%] |
| --- | --- |
| CCc1n[nH]c(C2CN(Cc3nc(C4CC4)no3)CCO2)n1 (stereo not drawn) | -3.3 |
| COc1c(C)cnc(CN(C)C(=O)c2cccnc2N(C)C)c1C | -0.657 |
| O=C(COc1ccc2c(c1)CCC2)N1CCCC(n2cccn2)C1 (stereo not drawn) | 15.3 |
| O=C(COCCc1ccccc1)N1CCCC(n2cccn2)C1 (stereo not drawn) | -6.79 |
| O=C(c1cccc2c1OCO2)N1CCCCC1Cn1cccn1 (stereo not drawn) | -10.8 |
| Cc1nc2n(n1)CC(NCc1nc(-c3cccnc3)no1)CC2 (stereo not drawn) | -7.76 |
| CCOc1ncccc1C(=O)N1CCCC(n2nc(C)nc2C)C1 (stereo not drawn) | -11.7 |
| O=C(CCNC(=O)c1ccoc1)Nc1ccccc1F | -8.3 |
| O=C(CCNC(=O)c1ccoc1)Nc1ccc(F)cc1F | -10.2 |
| COc1ccc(C2CCCN2C(=O)Nc2ccc(OC)nc2)cc1 (stereo not drawn) | -7.84 |
| COCCOc1ccc(NC(=O)N2CCCC2c2ccsc2)cn1 (stereo not drawn) | -5.25 |
| COc1c(C)cnc(CN(C)C(=O)c2ccccn2)c1C | 15.4 |
| COc1c(C)cnc(CN(C)C(=O)c2ccccc2O)c1C | 0.1 |
| CC(NC(=O)NCCCOc1ccccc1F)c1nncn1C (stereo not drawn) | -7.39 |
| Cc1nn(C)c(C)c1NC(=O)CN1CCOC(Cn2cccn2)C1 (stereo not drawn) | -1.52 |
| Cc1cnn(C2CCCN(C(=O)COc3ccc(C(N)=O)cc3)C2)c1 (stereo not drawn) | -9.97 |
| O=C(c1ccccc1N1CCOCC1)N1CCCC1Cn1cccn1 (stereo not drawn) | -4.2 |
| CCc1nccn1C1CCCN(C(=O)c2cnc3onc(C)c3c2)C1 (stereo not drawn) | -2.35 |
| NC(=O)c1cccc(OCC(=O)N2CCCC(n3cccn3)C2)c1 (stereo not drawn) | 3.84 |
| Cc1cc(C)n(C2CCCN(C(=O)c3c[nH]c(=O)c(Cl)c3)C2)n1 (stereo not drawn) | -8.77 |
| Cc1nc(C)n(C2CCCN(C(=O)c3cccnc3NC(C)C)C2)n1 (stereo not drawn) | -9.03 |
| Cc1nc(C)n(C2CCCN(C(=O)c3cccc4[nH]ncc34)C2)n1 (stereo not drawn) | -6.19 |
| CCCc1n[nH]c(C2CN(Cc3nnc(C4CC4)n3C)CCO2)n1 (stereo not drawn) | -5.29 |
| Cc1oc(-c2ccco2)nc1CC(=O)N1CCN(CC(C)O)CC1 (stereo not drawn) | 11.6 |

| Structure (SMILES) | cytotoxicity at 70.5 h [%] |
| --- | --- |
| CC(C)c1nc(CN2CCCC(O)C2)cs1 (stereo not drawn) | 13.1 |
| CNC(=O)CN1CCCC(Cc2ccccc2OC)C1 (stereo not drawn) | 5.69 |
| Cc1oc(-c2ccco2)nc1CC(=O)N1CCC(CCO)C1 (stereo not drawn) | -11 |
| CCn1ncc2c1CCCC2NCc1ccc(C)s1 (stereo not drawn) | -4.74 |
| Cc1c(Cl)c(CN2CCCC2Cn2cncn2)nc2ccccc12 (stereo not drawn) | -6.2 |
| CC(C)c1nccn1C1CCCN(C(=O)c2ccc3c(c2)COC3)C1 (stereo not drawn) | -8.53 |
| COc1ccc(Cl)cc1CS(=O)(=O)CC(=O)N(C)Cc1ccccc1F | -12.1 |
| Cc1csc(CNC(=O)N(C)Cc2ccc3c(c2)OCCO3)n1 | -10.6 |
| CCN(Cc1ccc2c(c1)OCO2)C(=O)NCc1nc(C)cs1 | -9.62 |
| CCN(Cc1ccc2c(c1)OCCO2)C(=O)NCc1csc(C)n1 | -9.9 |
| CCc1nc(CN2CCCC(NCc3ncc(C(C)(C)C)o3)C2)no1 (stereo not drawn) | 8.8 |
| CCc1nc(CN2CCCC(NCc3nnc(C4CC4)o3)C2)no1 (stereo not drawn) | 0.376 |
| CC(=O)N(Cc1ncc(C)o1)C1CCN(Cc2ccncc2Cl)C1 (stereo not drawn) | -1.73 |
| CC(=O)N(Cc1ncc(C)o1)C1CCN(Cc2noc(C)n2)C1 (stereo not drawn) | -5.31 |
| CN(C)c1cc(CNC(=O)c2ccc(=O)[nH]n2)ccn1 | 1.83 |
| O=C(NCCNc1ccc(C(F)(F)F)cn1)c1ccc(Br)cc1F | 17.1 |
| Cn1cnnc1C1CCCN(C(=O)c2n[nH]c3ccccc23)C1 (stereo not drawn) | 4.38 |
| CC(CNC(=O)Nc1cn[nH]c1)N1CCc2ccccc2C1 (stereo not drawn) | -7.18 |
| CCn1cnnc1CNC(=O)N1CCCN(C(C)=O)CC1 | -11.8 |
| CS(=O)(=O)NC1CCCN(C(=O)NCc2cc[nH]n2)C1 (stereo not drawn) | 10.8 |
| O=C(CCc1nccs1)N1CCN(c2cccnn2)CC1 | -3.92 |
| O=C(CCc1nccs1)N1CCN(c2ccc(Br)cn2)CC1 | 22.4 |
| Cc1cn2c(n1)CCC(NC(=O)c1cnc(C)nc1C(C)C)C2 (stereo not drawn) | -9 |
| CCc1nc(C2CCCN(C(=O)CN(C)S(C)(=O)=O)C2)no1 (stereo not drawn) | 3.45 |

| Structure (SMILES) | cytotoxicity at 70.5 h [%] |
| --- | --- |
| Cc1n[nH]c(C2CN(C(=O)c3ccnc(C4CC4)n3)CCO2)n1 (stereo not drawn) | -10.4 |
| CCNC(=O)N1CCCC(c2noc(CC)n2)C1 (stereo not drawn) | -3.02 |
| O=C(NCCC(=O)N1CCCc2ccccc21)c1c(O)cc(F)cc1F | -9.76 |
| O=C(NCCC(=O)N1CCCCCC1)c1c(O)cc(F)cc1F | 9.05 |
| Cc1cc(CN2Cc3ccccc3CC2c2nnc(C)o2)on1 (stereo not drawn) | -6.94 |
| Cc1cnn(CC2CCCN2C(=O)CCc2ccsc2)c1 (stereo not drawn) | -5.3 |
| c1ccc(CCN2CCOC(Cn3cccn3)C2)nc1 (stereo not drawn) | -4.02 |
| Cc1nc(C)n(CC2CCCN(CCC(=O)N3CCCCC3)C2)n1 (stereo not drawn) | -1.55 |
| CCn1cnnc1CNC(=O)N1CCC(Cc2cccnc2)CC1 | 34.8 |
| CCn1cc(CN2CCCN(C(=O)C3=NN(C)C(=O)CC3)CC2)cn1 | 17.3 |
| Cc1nc(CN2CCCCC2Cn2cncn2)nc2ccccc12 (stereo not drawn) | 20.9 |
| Cc1nc(CN(C)C2CCN(Cc3ccno3)C2)no1 (stereo not drawn) | 29.4 |
| O=C(CCNC(=O)c1ccoc1)NCc1ccccc1F | -11 |
| Cn1cnnc1C1CCCN(C(=O)c2ccc3c(c2)OCCCO3)C1 (stereo not drawn) | -2.02 |
| COCCOCc1cccc(NC(=O)N2CCCC2c2ccncc2)c1 (stereo not drawn) | 1.97 |
| Cn1cnnc1C1CCCN(C(=O)NCc2ccc3c(c2)OCO3)C1 (stereo not drawn) | -0.469 |
| c1cc(CN2CCN(Cc3cscn3)CC2)cs1 | -6.89 |
| CCc1noc(C)c1C(=O)N(C)Cc1ncc(C)c(OC)c1C | -30.2 |
| O=C(CCc1ccccn1)N1CCN(C(=O)CC2CCCCC2)CC1 | -4.45 |
| Cc1nc(C)n(CC2CCCN2Cc2cc(C)on2)n1 (stereo not drawn) | -1.6 |
| O=C1COc2c(cccc2C(=O)N2CCCCC2Cn2cccn2)N1 (stereo not drawn) | -4.26 |
| O=C(CC1CCCCC1)N1CCN(C(=O)NCc2ccccn2)CC1 | -9.56 |
| CC(NC(=O)NCCOc1ccc(F)c(F)c1)c1nncn1C (stereo not drawn) | -0.895 |
| Cc1cc(C)n(CC2CCCCN2Cc2cscn2)n1 (stereo not drawn) | -13.4 |

| Structure (SMILES) | cytotoxicity at 70.5 h [%] |
| --- | --- |
| CNc1cc2c(nn1)CCN(C(=O)c1cc(F)cc(F)c1)C2 | -10 |
| CNc1cc2c(nn1)CCN(C(=O)c1ccc(-n3nccc3C)cc1)C2 | -5.27 |
| Cc1nc(C)n(CC2CCCN2Cc2cscn2)n1 (stereo not drawn) | -9.32 |
| CN1CCN(C(=O)CC2CCN(CCc3ccccn3)CC2)CC1 | -0.784 |
| Cc1nc(CN2CCCC(N(C)Cc3c(C)noc3C)C2)no1 (stereo not drawn) | 10.6 |
| CC(C)c1nc2n(n1)CC(NCc1nc(-c3cccnc3)no1)CC2 (stereo not drawn) | 21.9 |
| CC(C)c1nccn1C1CCCN(C(=O)c2ccc3c(c2)OCO3)C1 (stereo not drawn) | -12.1 |
| Cc1n[nH]c(C)c1NC(=O)CN1CCn2c(nnc2C(C)C)C1 | -7.95 |
| CN(Cc1nnc(-c2ccco2)o1)CC1CCCN1c1cccnn1 (stereo not drawn) | 5.51 |
| Cc1cc(CN(C)C(=O)C2CCS(=O)(=O)C2)no1 (stereo not drawn) | 2.42 |
| CC(=O)Nc1nc(C(=O)NC(C)c2ccc3c(c2)OCCO3)cs1 (stereo not drawn) | -11.4 |
| Cc1csc(CNC(=O)NCCc2ccc3c(c2)OCCO3)n1 | 20.8 |
| Cc1noc(C2CCCN(C(=O)c3ccc(Br)o3)C2)n1 (stereo not drawn) | 19.7 |
| CCCNC(=O)NC(=O)CN(CC(C)O)c1ccccc1 (stereo not drawn) | -3.55 |
| CC(O)CN(CC(=O)NC(=O)NC1CC1)c1ccccc1 (stereo not drawn) | -11 |
| O=C(Cc1ccc(-n2cccn2)cc1)N1CCCC(n2cccn2)C1 (stereo not drawn) | 17.4 |
| Cc1cnn(C2CCCN(C(=O)c3ccn(C)c(=O)c3)C2)c1 (stereo not drawn) | -11.3 |
| COc1ccccc1CC1CCCN(CCC#N)C1 (stereo not drawn) | -13.9 |
| CCOc1ccccc1-c1noc(CN2CC(n3cccn3)C2)n1 | -14.4 |
| O=C(Cc1ccc2c(c1)OCCO2)N1CCCC(n2ccnc2)C1 (stereo not drawn) | 18.8 |
| CCn1nc(C(=O)N2CCCC(n3cncn3)C2)ccc1=O (stereo not drawn) | -14.8 |
| CCOc1ccccc1-c1noc(CN2CCCC(O)C2)n1 (stereo not drawn) | -11.1 |
